Reference: patent publication US5726195A, “Aminoacyl adenylate mimics as novel antimicrobial and antiparasitic agents” (Cubist Pharmaceuticals, Inc., priority 1996, dated 1998)

Legend:
[1] = tested on: Streptococcus pyogenes (ATCC 8668); assay: Mouse protection test against wild type Streptococcus pyogenes; type: in vivo, Streptococcus pyogenes; female CD-1 mice; conditions: for Protective % / Number of Alive: repeated at 4 hours, 7 days; for Number of Alive: of 5 mice
From the text: The mouse protection test is an industry standard for measuring the efficacy of a test compound in vivo [for examples of this model see J. J. Clement, et al., Antimicrobial Agents and Chemotherapy, 38 (5), 1071-1078, (1994)]. As exemplified below, this test was used to show the in vivo efficacy of the compounds of the present invention against bacteria.
The in vivo antibacterial activity of compound X was established by infecting female CD-1 mice (Charles River Lab, Massachusettes) weighing 20-24 g intraperitoneally with Streptococcus pyogenes inoculum. The inoculum was prepared from Streptococcus pyogenes (ATCC 8668) which was cultured in brain heart infusion broth (Baltimore Biological Laboratories,Maryland) at 37° C. for 18 hr, and then 0.1 ml of the overnight culture was diluted with the medium to 5.0 ml for reading its OD at 600 nm (0.017). The turbidity of a 0.5 McFarland standard is equivalent to OD600 0.1, or 10^8 cfu/ml. Then, 8×10^5 cfu of the bacteria (940 μl of 1:1000 overnight culture) was added to 20 ml of phosphate buffered saline (Sigma P-0261 ) containing 5% hog gastric mucin (Sigma M-2378). All animals were injected with 0.5 ml of the inoculum, equivalent to 2×10^4 cfu/mouse which is the dose causing ~100% death of the animals without treatment.
Compound X (50 mg) was dissolved in 5.0 ml of 0.05M Tris.HCl (pH 8.8) to give a solution of 10 mg/ml. This solution was serially diluted with 0.05 M Tris.HCl by 5-fold (1.0 ml to 5.0 ml) to give 2, 0.4 and 0.08 mg/ml solutions. The known antibiotic erythromycin (Sigma E-6376, in phosphate buffered saline, 1 mg/ml, pH 7.0) was used as a positive control. All the solutions were filtered with 0.2 μm Nalgene syringe filter. Immediately after the bacterial inoculation, group 1 animals were subcutaneously (sc) injected with 0.05M Tris.HCl (no antibiotic) and groups 2 to 5 were given compound X sc at 0.8, 4, 20, and 100 mg/kg, respectively. Group 6 animals received erythromycin sc at 10 mg/kg. These injections were repeated once at 4 hours after the inoculation for the respective groups. The injection volume at each time was 10 ml per kilogram of body weight. The 50% protective dose (PD50) is calculated on the basis of the number of mice surviving 7 days after inoculation.

[2] = target: E. Coli. IleRS (isoleucyl-tRNA synthetase) (Escherichia coli, UniProt P00956); assay: Inhibition of isoleucyl-tRNA synthetase (aminoacylation of tRNA with [3H]isoleucine); type: biochemical; conditions: read-out: IC50 E.Coli. IleRS; E. coli enzyme; irreversible inhibitors: values are 50% of the active enzyme concentration
Chain of E. Coli. IleRS (isoleucyl-tRNA synthetase) (P00956 whole entry): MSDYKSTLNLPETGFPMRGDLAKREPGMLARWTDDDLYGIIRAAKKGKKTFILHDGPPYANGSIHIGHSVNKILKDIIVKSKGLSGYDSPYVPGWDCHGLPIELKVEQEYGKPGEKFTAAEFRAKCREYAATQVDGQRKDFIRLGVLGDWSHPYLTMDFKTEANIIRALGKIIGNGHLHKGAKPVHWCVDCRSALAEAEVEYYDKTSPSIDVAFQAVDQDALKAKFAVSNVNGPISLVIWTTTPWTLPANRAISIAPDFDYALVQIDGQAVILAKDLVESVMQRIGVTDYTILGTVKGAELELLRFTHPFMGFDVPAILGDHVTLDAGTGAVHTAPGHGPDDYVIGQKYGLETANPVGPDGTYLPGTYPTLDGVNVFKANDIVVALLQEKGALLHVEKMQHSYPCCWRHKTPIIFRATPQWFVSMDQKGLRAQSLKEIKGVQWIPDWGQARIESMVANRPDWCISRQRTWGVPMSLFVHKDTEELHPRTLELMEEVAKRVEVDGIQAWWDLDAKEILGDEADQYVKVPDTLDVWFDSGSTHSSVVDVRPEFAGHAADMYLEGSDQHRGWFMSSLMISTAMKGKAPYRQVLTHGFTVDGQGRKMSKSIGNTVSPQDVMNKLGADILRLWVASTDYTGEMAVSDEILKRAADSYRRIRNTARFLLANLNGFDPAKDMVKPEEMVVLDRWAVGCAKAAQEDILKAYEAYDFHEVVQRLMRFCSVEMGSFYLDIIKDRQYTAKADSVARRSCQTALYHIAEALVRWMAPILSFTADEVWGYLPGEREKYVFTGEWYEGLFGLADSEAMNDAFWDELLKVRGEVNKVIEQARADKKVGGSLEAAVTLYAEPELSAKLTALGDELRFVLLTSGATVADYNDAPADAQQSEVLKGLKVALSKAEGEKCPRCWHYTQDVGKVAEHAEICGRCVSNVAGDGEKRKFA
Summary of the method: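 Enzyme (0.08-2.0 nM, preferably 0.4 nM) preincubated 20 min at 25° C. with compound, then reacted at 25° C. with 4 mM ATP, 5-20 μM [3H]isoleucine, 90 μM crude or 2 μM specific tRNA in HEPES pH 7.5. TCA-precipitable radioactivity counted; IC50 relative to uninhibited activity.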

## CC[C@H](C)[C@H](N)C(=O)NS(=O)(=O)OC[C@H]1O[C@@H](CCn2nnc(-c3ccc(Oc4ccccc4)cc3)n2)[C@H](O)[C@@H]1O [Compound X, [S-(R*,R*)]-3,6-anhydro-1,2-dideoxy-1-[5-(4-phenoxyphenyl)-2H-tetrazol-2-yl]-D-allo-heptitol 7-(2-amino-3-methyl-1-oxopentyl)sulfamate]
[1]; 4 mg/kg sc
  Protective %: 0%
  Number of Alive: 0
[1]; 20 mg/kg sc
  Protective %: 40%
  Number of Alive: 2
[1]; 100 mg/kg sc
  Protective %: 100%
  Number of Alive: 5
[1]; Streptococcus pyogenes, ATCC8668, 168 h, sc, mice surviving 7 days after inoculation, wild type, read-out: PD50 (50% protective dose)
  ED50: 21.1 mg/kg
[2]
  IC50: 1.3 nM
